Tests used:
[1] = Influence of pH and pH adjuster on stability of RV-MP solution (HPLC impurities, 60° C./75% RH); format: physicochemical
Experimental: (§1) Remdesivir monophosphate disodium salt is the salt of nucleoside monophosphate. The stability of remdesivir monophosphate disodium salt (referred to as RV-MP) is highly dependent on the pH. Four samples were prepared, having pH 3.0, 4.0, 5.0, 6.0. 23 ml of purified water was adjusted to the target pH with hydrochloric acid. RV-MP according to the amounts provided in table 5 was added to the solution, and the resulting mixture was sonicated until completely dissolved. The resulting mixture was adjusted to the target pH with hydrochloric acid. Finally, purified water was added to provide a final weight of 25.0 g.
(§2) Impurities Detection Method: HPLC Detection Method • Column: YMC-triart C 18, 4.6*150 mm, S-5 μm, 12 nm; • Flow: 0.8 ml/min • Injection volume: […], • Column temperature: 40° C. • A: Weigh 2.7 g of sodium dihydrogen phosphate, add 1 L of purified water, stir to dissolve, and filter to obtain. • B: Methanol
as §1, with “The” for “Remdesivir monophosphate disodium salt is the salt of nucleoside monophosphate. The”, “Five” for “Four”, “3.2, 3.5, 3.8, 4.0.” for “4.0, 5.0, 6.0.”, “citric” for “hydrochloric”, “Table 10” for “table 5”
as §1, with “The” for “Remdesivir monophosphate disodium salt is the salt of nucleoside monophosphate. The”, “Five” for “Four”, “3.2, 3.5, 3.8, 4.0.” for “4.0, 5.0, 6.0.”, “HCl.” for “hydrochloric acid.”, “Table 16” for “table 5”, “Then the” for “The”

[2] = Strong degradation test under light conditions (HPLC impurities); format: physicochemical
Experimental: as §2
Sample 15: 60 mg RV_MP dissolved in 100 ml purified water.
The sample 15 was placed in light conditions, and the placement time was 2 hours, 4 hours, 6 hours, 24 hours, 48 hours, 72 hours, and the impurity detection method in Example 5 was used to detect the samples.
The impurity detection method of the present invention is the same as the impurity detection method in Example 5.

Question: With “remdesivir monophosphate disodium salt [RV-MP]” as the substance, how does the “Stability of RV-MP solution at 60° C.” value ([1]; 60° C.) read?
Answer: unstable

Question: What about the “Stability of RV-MP formulations” value ([1]; adjusting pH using HCl) of the same substance?
Answer: stable at pH 3.0-4.0

Question: What about the “pH of highest stability” value ([1]; adjusting pH using HCl, pH 3.0-6.0 tested) of the same substance?
Answer: 3.0

Question: What about the “Stability of resulting solution” value ([1]; using HCl to adjust the pH, compared with citric acid) of the same substance?
Answer: more stable

Question: And the “Stability of resulting solution” value ([1]; using citric acid to adjust the pH, especially at pH3.0)?
Answer: unstable

Question: What about the “Stability of RV-MP solution under light condition” value [2] of the same substance?
Answer: unstable

From US20210346288A1, “PHARMACEUTICAL FORMULATION CONTAINING ACTIVE METABOLITES OF REMDESIVIR FOR INHALATION” (priority 2020, published 2021)
